Converted amounts (≈) assume the structure as drawn. Like-named read-outs stand apart in the source and are kept apart here.
Experiments:
[1] = tested on: Mycobacterium tuberculosis H37Rv; assay: In vitro assay for antimicrobial susceptibility (microplate Alamar blue, MIC); format: cell-based; settings: for MIC: Mycobacterium tuberculosis, read-out: MIC (μg/mL) against H37Rv
[2] = tested on: mitochondrial protein synthesis (MPS) in H9C2 cells; assay: In vitro assay for MPS inhibition (COX-1 / SDH-A ELISA in H9C2 cells); format: cell-based, rat; settings: read-out: IC50 (μM) MPS inhibition
tuberculosis = settings: cited from earlier work
[3] = M. tuberculosis H37Rv, 7H9 broth, Alamar blue
[4] = Rattus norvegicus, 120 h, H9C2 cells, 5 days incubation

Compound	MIC [1, 3] [µg/mL]	IC50 [2, 4] [µM]	MIC ([1]; H37RV) [µg/mL]	IC50 ([2]; Rattus norvegicus, H9c2, 120 h) [µM]	other results
(R)-5-((2H-1,2,3-Triazol-2-yl)methyl)-3-(3-fluoro-4-(2-oxa-6-azaspiro[3.3]heptan-6-yl)phenyl)oxazolidin-2-one [OTB-204]	–	–	–	–	MIC (μg/mL) against H37Rv [1, 3]: 3.2 to 3.7 µg/mL; IC50 ([2]; H9C2 cells, 5 days incubation): > 100 µM
CS(=O)(=O)NC[C@H]1CN(c2cc(F)c(N3CC4(C3)C[S+]([O-])C4)c(F)c2)C(=O)O1 [OTB-516-2B]	3 (≈ 6.89 µM)	> 100	–	–	–
CC(=O)NC[C@H]1CN(c2ccc(N3CCOCC3)c(F)c2)C(=O)O1 [Linezolid]	–	–	–	–	activity in murine models of tuberculosis (tuberculosis): only modest activity
O=C1O[C@@H](Cn2ccnn2)CN1c1cc(F)c(N2C3CCC2COC3)c(F)c1 [OBD-055, (5R)-5-((1H-1,2,3-triazol-1-yl)methyl)-3-(4-(3-oxa-8-aza-bicyclo[3.2.1]octan-8-yl)-3,5-difluorophenyl)oxazolidin-2-one]	–	–	1.3 (≈ 3.32 µM)	15	–
CC(=O)NC[C@H]1CN(c2ccc(N3[C@@H]4CC[C@H]3CSC4)c(F)c2)C(=O)O1 [OTB-502, N—(((S)-3-(4-((1R,5S)-3-Thia-8-azabicyclo[3.2.1]octan-8-yl)-3-fluorophenyl)-2-oxooxazolidin-5-yl)methyl)acetamide]	–	–	0.246 (≈ 0.648 µM)	13.6	–
CCCC(=O)NC[C@H]1CN(c2ccc(N3C4CCC3CSC4)c(F)c2)C(=O)O1 [OBD-016, N—(((S)-3-(4-(3-thia-8-aza-bicyclo[3.2.1]octan-8-yl)-3-fluorophenyl)-2-oxooxazolidin-5-yl)methyl)butyramide]	–	–	0.486 (≈ 1.19 µM)	13	–
COC(=O)NC[C@H]1CN(c2cc(F)c(N3CCCSCC3)c(F)c2)C(=O)O1 [OTB-410, Methyl (S)-((3-(3,5-difluoro-4-(1,4-thiazepan-4-yl)phenyl)-2-oxo-oxazolidin-5-yl)methyl)carbamate]	0.125 (≈ 0.311 µM)	> 100	–	–	–
O=C1O[C@@H](Cn2cncn2)CN1c1ccc(N2CCC[S+]([O-])CC2)c(F)c1 (stereo partly drawn) [OTB-140, (5R)-5-((1H-1,2,4-Triazol-1-yl)methyl)-3-(3-fluoro-4-(1-oxido-1,4-thiazepan-4-yl)phenyl)oxazolidin-2-one]	3.69 (≈ 9.39 µM)	> 100	–	–	–
NC[C@H]1CN(c2cc(F)c(N3C4CCC3C[S+]([O-])C4)c(F)c2)C(=O)O1 (stereo partly drawn) [OBD-087]	–	–	0.86 (≈ 2.32 µM)	> 100	–
CS(=O)(=O)NC[C@H]1CN(c2cc(F)c(N3CC4(CSC4)C3)c(F)c2)C(=O)O1 [OTB-516-2A]	0.05 (≈ 0.119 µM)	> 100	–	–	–
O=C1O[C@@H](CO)CN1c1ccc(N2CC3CCC(C2)O3)c(F)c1 [OBD-112, 3-(4-(8-oxa-3-aza-bicyclo[3.2.1]octan-3-yl)-3-fluorophenyl)-5-(hydroxymethyl)oxazolidin-2-one]	3.5 (≈ 10.9 µM)	> 100	–	–	–
O=C1O[C@@H](Cn2nccn2)CN1c1ccc(N2CCCSCC2)c(F)c1 [OTB-106, (R)-5-[(2H-1,2,3-Triazol-2-yl)methyl]-3-[3-fluoro-4-(1,4-thiazepan-4-yl)phenyl]oxazolidin-2-one]	2 (≈ 5.3 µM)	> 100	–	–	–
O=C1O[C@@H](Cn2ccnn2)CN1c1ccc(N2CCC[S+]([O-])CCC2)c(F)c1 [OBD-002, (R)-5-((1H-1,2,3-Triazol-1-yl)methyl)-3-(3-fluoro-4-(1-oxido-1,5-thiazocan-5-yl)phenyl)oxazolidin-2-one]	1.6 (≈ 3.93 µM)	29	–	–	–
O=C(NC[C@H]1CN(c2cc(F)c(N3CC4(COC4)C3)c(F)c2)C(=O)O1)C1CC1 [OTB-233, (S)—N-((3-(3,5-Difluoro-4-(2-oxa-6-azaspiro[3.3]heptan-6-yl)phenyl)-2-oxo-oxazolidin-5-yl)methyl)cyclopropanecarboxamide]	0.36 to 1 (≈ 0.915 to 2.54 µM)	8.4 to 50	–	–	–
NC[C@H]1CN(c2ccc(N3C4CCC3CSC4)c(F)c2)C(=O)O1 [OBD-081, (5S)-3-(4-(3-thia-8-aza-bicyclo[3.2.1]octan-8-yl)-3-fluorophenyl)-5-(aminomethyl)oxazolidin-2-one]	–	–	0.47 (≈ 1.39 µM)	77	–
O=C1O[C@@H](Cn2ccnn2)CN1c1ccc(N2CCCSCC2)c(F)c1 [OTB-107, (R)-5-[(1H-1,2,3-Triazol-1-yl)methyl]-3-[3-fluoro-4-(1,4-thiazepan-4-yl)phenyl]oxazolidin-2-one]	0.03 (≈ 0.0795 µM)	84.9	–	–	–
CNC(=O)OC[C@H]1CN(c2ccc(N3CC4(C3)C[S+]([O-])C4)c(F)c2)C(=O)O1 [OTB-260-4B]	–	> 100	20 (≈ 50.3 µM)	–	–
O=C1O[C@@H](Cn2ccnn2)CN1c1cc(F)c(N2CCCSCC2)c(F)c1 [OTB-411, (R)-5-((1H-1,2,3-triazol-1-yl)methyl)-3-(3,5-difluoro-4-(1,4-thiazepan-4-yl)phenyl)oxazolidin-2-one]	0.124 (≈ 0.314 µM)	8.73	–	–	–
COC(=O)NC[C@H]1CN(c2cc(F)c(N3C4CCC3C[S+]([O-])C4)c(F)c2)C(=O)O1 (stereo partly drawn) [OTB-519]	–	–	0.9 (≈ 2.1 µM)	51	–
O=C1O[C@@H](CO)CN1c1cc(F)c(N2CC3(CSC3)C2)c(F)c1 [OTB-516, (R)-3-(3,5-Difluoro-4-(2-thia-6-azaspiro[3.3]heptan-6-yl)phenyl)-5-(hydroxymethyl) oxazolidin-2-one]	0.465 (≈ 1.36 µM)	15.3	–	–	–

— patent US11964949B2, “Substituted phenyloxazolidinones for antimicrobial therapy” (priority 2015, dated 2024)
